Assay results: patent publication US9849130B2 (KamTek, Inc., priority 2014, dated 2017)
≈ marks a conversion by molar mass, not a printed value. Entries after “also recorded” stand apart in the source; their conditions may differ. Where two headings read alike, the source gives them in different places.

Tests used:
[1] = system: CD strains; assay: In vitro activity of CFM + additional antimicrobial agent against CD (MIC alone/combination, FIC, ΣFIC); format: cell-based, Clostridium difficile; conditions: CD strain NR32888
[2] = system: C. perfringens MH310; assay: microbe, parasite or virus in culture; format: cell-based; conditions: Clostridium perfringens, MH310, C. perfringens MH310
[3] = system: Bifidobacterium strains; assay: MIC by microdilution in BHI broth against Bifidobacterium strains; format: cell-based, Bifidobacterium spp.; conditions: BHI broth, read-out: MIC
[4] = system: Escherichia coli strains; assay: MIC by microdilution in Mueller-Hinton broth against Escherichia coli strains; format: cell-based; conditions: for MIC: Escherichia coli, Mueller-Hinton broth, read-out: MIC
[5] = system: Fusobacterium; assay: MIC by microdilution in Brucella broth against Fusobacterium; format: cell-based, Fusobacterium spp.; conditions: Brucella broth, read-out: MIC
[6] = system: Lachnospiraceae and related bacterial strains; assay: MIC against Lachnospiraceae and related bacterial strains; format: cell-based, Lachnospiraceae spp.
[7] = system: Enterococcus faecalis; assay: MIC by microdilution in Mueller-Hinton broth against Enterococcus faecalis strains; format: cell-based; conditions: Enterococcus faecalis
[8] = system: Clostridium difficile (CD) strains; assay: microbe, parasite or virus in culture; format: cell-based
[9] = system: Enterococci faecium; assay: MIC by microdilution in Mueller-Hinton broth against Enterococci faecium strains; format: cell-based, Enterococcus faecium; conditions: Enterococcus faecium, Mueller-Hinton broth, read-out: MIC
[10] = system: C. difficile VPI10463
[11] = system: Staphylococcus aureus strains; assay: MIC by microdilution in Mueller-Hinton broth against Staphylococcus aureus strains; format: cell-based; conditions: Staphylococcus aureus

Structure (SMILES): CC(C)N=c1cc2n(-c3ccc(Cl)cc3)c3ccccc3nc-2cc1Nc1ccc(Cl)cc1 [CFM, 3-(p-chloroanilino)-10-(p-chlorophenyl)-2,10-dihydro-2-iso-propyliminophenazine]
- FIC ([1]; Test 20, CFM + VAN): 0.25
- MIC combination ([1]; Test 20, CFM + VAN): 0.062 µg/mL
- ΣFIC ([1]; Test 20, sum for combination CFM + VAN): 0.75
- FIC ([1]; Test 21, CFM + MET): 0.031
- MIC combination ([1]; Test 21, CFM + MET): 0.0078 µg/mL
- ΣFIC ([1]; Test 21, sum for combination CFM + MET): 0.28
- MIC ([2]; BB): 0.5 µg/mL (≈ 1.06 µM)
- MIC ([2]; BHI): 1 µg/mL (≈ 2.11 µM)
- MIC ([3]; Bifidobacterium adolescentis HM-633): 1 µg/mL (≈ 2.11 µM)
- MIC ([3]; Bifidobacterium breve HM-411): 2 µg/mL (≈ 4.22 µM)
- MIC ([3]; Bifidobacterium breve HM-412): 2 µg/mL (≈ 4.22 µM)
- MIC ([3]; Bifidobacterium breve HM-856): 4 µg/mL (≈ 8.45 µM)
- MIC ([3]; Bifidobacterium breve HM-1120): > 32 µg/mL
- MIC ([3]; Bifidobacterium longum HM-845): 1 µg/mL (≈ 2.11 µM)
- MIC ([3]; Bifidobacterium longum HM-846): 2 µg/mL (≈ 4.22 µM)
- MIC ([3]; Bifidobacterium longum HM-847): 1 µg/mL (≈ 2.11 µM)
- MIC ([3]; Bifidobacterium, Bifidobacterium sp. HM-30): 0.5 µg/mL (≈ 1.06 µM)
- MIC ([3]; Bifidobacterium, Bifidobacterium sp. HM-868): 2 µg/mL (≈ 4.22 µM)
- activity against E. coli (in words) [4]: relatively inactive; also recorded: not active
- MIC ([4]; Escherichia coli strain NR 6): > 32 µg/mL
- MIC ([4]; Escherichia coli strain NR 8): > 32 µg/mL
- MIC ([4]; Escherichia coli strain NR 96): > 32 µg/mL
- MIC ([4]; Escherichia coli strain NR 104): > 32 µg/mL
- MIC ([4]; Escherichia coli strain NR 17626): > 32 µg/mL
- MIC ([4]; Escherichia coli strain NR 17627): > 32 µg/mL
- MIC ([4]; Escherichia coli strain NR 17633): > 32 µg/mL
- MIC ([4]; Escherichia coli strain NR 17647): > 32 µg/mL
- MIC ([4]; Escherichia coli strain NR 17650): > 32 µg/mL
- MIC ([4]; Escherichia coli strain NR 17661): > 32 µg/mL
- MIC ([5]; F. nucleatum HM-75): > 32 µg/mL
- MIC ([5]; F. nucleatum HM-260): > 32 µg/mL
- MIC ([5]; F. nucleatum HM-992): > 32 µg/mL
- MIC ([5]; F. nucleatum HM-993): 2 µg/mL (≈ 4.22 µM)
- MIC ([5]; F. nucleatum HM-994): 32 µg/mL (≈ 67.6 µM)
- MIC ([5]; F. nucleatum HM-995): > 32 µg/mL
- MIC ([5]; F. nucleatum HM-996): 32 µg/mL (≈ 67.6 µM)
- MIC ([5]; F. nucleatum HM-997): > 32 µg/mL
- MIC ([5]; Fusobacterium, Fusobacterium sp. HM 42): > 32 µg/mL
- MIC ([5]; Fusobacterium, Fusobacterium sp. HM 57): > 32 µg/mL
- MIC ([5]; Fusobacterium, Fusobacterium sp. HM-556): 16 µg/mL (≈ 33.8 µM)
- MIC ([5]; Fusobacterium, Fusobacterium sp. HM-758): > 32 µg/mL
- MIC ([5]; Fusobacterium, Fusobacterium sp. HM-871): 32 µg/mL (≈ 67.6 µM)
- MIC ([5]; Fusobacterium, Fusobacterium sp. HM-874): > 32 µg/mL
- MIC ([5]; Fusobacterium, Fusobacterium sp. HM-875): 32 µg/mL (≈ 67.6 µM)
- MIC [6]: 0.125 µg/mL (≈ 0.264 µM)
- MIC ([6]; Clostridiales bacterium, Clostridiales bacterium HM-84, broth microdilution, brucella broth, read-out: MIC): ≤ 0.031 µg/mL
- MIC ([6]; Clostridiales bacterium, Clostridiales bacterium HM-182, broth microdilution, brucella broth, read-out: MIC): 0.25 µg/mL (≈ 0.528 µM)
- MIC ([6]; Eubacterium sp. HM-178, broth microdilution, brucella broth): 0.125 µg/mL (≈ 0.264 µM)
- MIC ([6]; Lachnospiraceae sp. HM-7, broth microdilution, brucella broth, read-out: MIC): ≤ 0.031 µg/mL
- MIC ([6]; Lachnospiraceae sp. HM-150, broth microdilution, brucella broth, read-out: MIC): 0.25 µg/mL (≈ 0.528 µM)
- MIC ([6]; Lachnospiraceae sp. HM-153, broth microdilution, brucella broth): 0.125 µg/mL (≈ 0.264 µM)
- MIC ([6]; Lachnospiraceae sp. HM-154, broth microdilution, brucella broth, read-out: MIC): 0.5 µg/mL (≈ 1.06 µM)
- MIC ([6]; Lachnospiraceae sp. HM-161, broth microdilution, brucella broth, read-out: MIC): 0.25 µg/mL (≈ 0.528 µM)
- MIC ([6]; Lachnospiraceae sp. HM-480, broth microdilution, brucella broth, read-out: MIC): 0.062 µg/mL (≈ 0.131 µM)
- MIC ([6]; Lachnospiraceae sp. HM-558, broth microdilution, brucella broth, read-out: MIC): 0.062 µg/mL (≈ 0.131 µM)
- MIC ([6]; Lachnospiraceae sp. HM-768, broth microdilution, brucella broth, read-out: MIC): ≤ 0.031 µg/mL
- MIC ([6]; Lachnospiraceae sp. HM-868, broth microdilution, brucella broth, read-out: MIC): 2 µg/mL (≈ 4.22 µM)
- MIC ([6]; Peptostreptococcaceae sp. HM-766, broth microdilution, brucella broth, read-out: MIC): 1 µg/mL (≈ 2.11 µM)
- susceptibility of Lachnospiraceae and related organisms (in words) ([6]; most of the members of this family): susceptible
- MIC ([7]; E. faecalis NR 31884, read-out: MIC): 32 µg/mL (≈ 67.6 µM)
- MIC ([7]; E. faecalis NR 31885, read-out: MIC): 32 µg/mL (≈ 67.6 µM)
- MIC ([7]; E. faecalis NR 31886, read-out: MIC): 32 µg/mL (≈ 67.6 µM)
- MIC ([7]; E. faecalis NR 31887, read-out: MIC): 16 µg/mL (≈ 33.8 µM)
- MIC ([7]; E. faecalis NR 31888, read-out: MIC): 32 µg/mL (≈ 67.6 µM)
- MIC50 ([8]; Clostridioides difficile): 0.062 µg/mL (≈ 0.131 µM)
- MIC90 ([8]; Clostridioides difficile): 0.25 µg/mL (≈ 0.528 µM)
- MIC ([8]; Clostridioides difficile, BAA1805, CD isolate BAA1805 (hyper-virulent strain BI/NAP1/027), Table 6): 0.125 µg/mL (≈ 0.264 µM)
- MIC ([8]; Clostridioides difficile, BAA1805, CD strain BAA1805 (hyper-virulent strain BI/NAP1/027), BB): 0.125 µg/mL (≈ 0.264 µM)
- MIC ([8]; Clostridioides difficile, BAA1805, CD strain BAA1805 (hyper-virulent strain BI/NAP1/027), BHI): 0.125 µg/mL (≈ 0.264 µM)
- MIC50 ([8]; n = 37): 0.062 µg/mL (≈ 0.131 µM)
- MIC90 ([8]; n = 37): 0.25 µg/mL (≈ 0.528 µM)
- MIC Range ([8]; n = 37): ≦0.031-0.25 μg/ml
- MIC ([9]; E. faecium NR 31903): 4 µg/mL (≈ 8.45 µM)
- MIC ([9]; E. faecium NR 31909): 2 µg/mL (≈ 4.22 µM)
- MIC ([9]; E. faecium NR 31912): 2 µg/mL (≈ 4.22 µM)
- MIC ([9]; E. faecium NR 31915): 16 µg/mL (≈ 33.8 µM)
- MIC ([9]; E. faecium NR 31916): 8 µg/mL (≈ 16.9 µM)
- MIC ([10]; Clostridioides difficile, VPI10463): 0.125 µg/mL (≈ 0.264 µM)
- MIC ([10]; Clostridioides difficile, VPI10463, Expt. 1, fecal extract (human feces 20% w/v in BHI), C. difficile VPI10463): 0.5 µg/mL (≈ 1.06 µM)
- MIC ([10]; Clostridioides difficile, VPI10463, Expt. 2, −fecal extract, C. difficile VPI10463): 0.062 µg/mL (≈ 0.131 µM)
- MIC ([10]; Expt. 2, +fecal extract (human feces 20% w/v in BHI), C. difficile VPI10463): 0.125 µg/mL (≈ 0.264 µM)
- MIC ([11]; Staphylococcus aureus strain NR 10129, read-out: MIC): 16 µg/mL (≈ 33.8 µM)
- MIC ([11]; Staphylococcus aureus strain NR 10186, read-out: MIC): 2 µg/mL (≈ 4.22 µM)
- MIC ([11]; Staphylococcus aureus strain NR 10187, read-out: MIC): > 32 µg/mL
- MIC ([11]; Staphylococcus aureus strain NR 10188, read-out: MIC): 8 µg/mL (≈ 16.9 µM)
- MIC ([11]; Staphylococcus aureus strain NR 10189, read-out: MIC): 8 µg/mL (≈ 16.9 µM)
- MIC ([11]; Staphylococcus aureus strain NR 10191, read-out: MIC): 4 µg/mL (≈ 8.45 µM)
- MIC ([11]; Staphylococcus aureus strain NR 10192, read-out: MIC): 8 µg/mL (≈ 16.9 µM)
- MIC ([11]; Staphylococcus aureus strain NR 10193, read-out: MIC): 4 µg/mL (≈ 8.45 µM)
- MIC ([11]; Staphylococcus aureus strain NR 10194, read-out: MIC): 4 µg/mL (≈ 8.45 µM)
- MIC ([11]; Staphylococcus aureus strain NR 10198, read-out: MIC): 16 µg/mL (≈ 33.8 µM)
